Patent US9518018B2, “3-alkoxy, thioalkyl and amino-4-amino-6-(substituted)picolinates and their use as herbicides” (Dow AgroSciences LLC, priority 2011, dated 2016)

How the values were obtained:
Test in all cases: In-water applied herbicidal activity in transplanted paddy rice
Assay type in all cases: in vivo
[1] = test system: CYPDI = Cyperus difformis L. (small-flower flatsedge)
Method: (§1) Weed seeds or nutlets of the desired test plant species were planted in puddled soil (mud) prepared by mixing a non-sterilized mineral soil (28 percent silt, 18 percent clay, and 54 percent sand, with a pH of about 7.3 to 7.8 and an organic matter content of about 1.0 percent) and water at a ratio of 100 kilograms (kg) of soil to 19 liters (L) of water. The prepared mud was dispensed in 250 mL aliquots into 480 mL non-perforated plastic pots with a surface area of 86.59 cm^2 leaving a headspace of 2.5 to 3 cm in each pot. Rice seeds were planted in Sun Gro MetroMix 306 planting mixture, which typically has a pH of 6.0 to 6.8 and an organic matter content of about 30 percent, in plastic plug trays. Seedlings at the second or third leaf stage of growth were transplanted into 650 mL of mud contained in 960 mL non-perforated plastic pots with a surface area of 86.59 cm^2 four days prior to herbicide application. The paddy was created by filling the 2.5 to 3 cm headspace of the pots with water. When required to ensure good germination and healthy plants, a fungicide treatment and/or other chemical or physical treatment was applied. The plants were grown for 4-14 d in a greenhouse with an approximate 14-h photoperiod which was maintained at about 29° C. during the day and 26° C. during the night. Nutrients were added as Osmocote (17:6:10, Nitrogen:Phosphorus:Potassium (N:P:K)+minor nutrients) at 2 grams (g) per cup. Water was added on a regular basis to maintain the paddy flood, and supplemental lighting was provided with overhead metal halide 1000-Watt lamps as necessary. The plants were employed for testing when they reached the second or third true leaf stage. Treatments consisted of compounds 45, 34, and 66. For technical grade compounds, a weighed amount, determined by the highest rate to be tested, was placed in an individual 120 mL glass vial and was dissolved in 20 mL of acetone to obtain concentrated stock solutions. […] The concentrated stock solutions obtained were diluted with 20 mL of an aqueous mixture containing 2.5% Agri-dex crop oil concentrate (v/v). Applications were made by injecting an appropriate amount of the stock solution into the aqueous layer of the paddy. Control plants were treated in the same manner with the solvent blank. All treated plant material received the same concentration of acetone and crop oil concentrate. The treated plants and control plants were placed in a greenhouse as described above and water was added as needed to maintain a paddy flood. After approximately 3 weeks, the condition of the test plants, compared with that of the untreated plants, was determined visually and scored on a scale of 0 to 100 percent where 0 corresponds to no injury and 100 corresponds to complete kill. By applying the well-accepted probit analysis as described by J. Berkson in Journal of the […], 48, 565 (1953) and by D. Finney in “Probit Analysis” Cambridge University Press (1952) or by plotting the mean data and fitting a logarithmic curve to the portion of the data where there was a dose response using Microsoft Excel®, the above data can be used to calculate GR50 and GR90 values, which are defined as growth reduction factors that correspond to the effective dose of herbicide required to kill or control 50 percent or 90 percent, respectively, of a target plant.

[2] = test system: SCPJU = Scirpus juncoides ROXB. (Japanese bulrush)
Method: as §1

[3] = test system: ORYSA = Oryza sativa ‘M202’ (rice)
Method: as §1

[4] = test system: MOOVA = Monochoria vaginalis (BURM.f.) C.PRESL ex KUNTH (monochoria)
Method: as §1

[5] = test system: ECHCG = Echinochloa crus-galli (L.) P.BEAUV. (barnyardgrass)
Method: as §1

[6] = test system: ORYSA = Oryza sativa ‘Wells’ (rice)
Method: as §1

[7] = Table 7, dose to kill or control 50 percent, 21 days after application
[8] = Table 7, dose to kill or control 90 percent, 21 days after application

COC(=O)c1nc(-c2ccc(Cl)c(OC)c2F)c(F)c(N)c1OC [Compound 34]
Mean Visual Injury (%)-21 Days After Application CYPDI ([1]; Table 7, 8.75 g ae/ha): 100%
Mean Visual Injury (%)-21 Days After Application CYPDI ([1]; Table 7, 17.5 g ae/ha): 100%
Mean Visual Injury (%)-21 Days After Application CYPDI ([1]; Table 7, 35 g ae/ha): 100%
Mean Visual Injury (%)-21 Days After Application CYPDI ([1]; Table 7, 70 g ae/ha): 100%
Mean Visual Injury (%)-21 Days After Application CYPDI ([1]; Table 7, 140 g ae/ha): 100%
GR50 CYPDI [1, 7]: <8.75 g ae/ha
GR90 CYPDI [1, 8]: <8.75 g ae/ha
Mean Visual Injury (%)-21 Days After Application SCPJU ([2]; Table 7, 8.75 g ae/ha): 67%
Mean Visual Injury (%)-21 Days After Application SCPJU ([2]; Table 7, 17.5 g ae/ha): 90%
Mean Visual Injury (%)-21 Days After Application SCPJU ([2]; Table 7, 35 g ae/ha): 100%
Mean Visual Injury (%)-21 Days After Application SCPJU ([2]; Table 7, 70 g ae/ha): 100%
Mean Visual Injury (%)-21 Days After Application SCPJU ([2]; Table 7, 140 g ae/ha): 100%
GR50 SCPJU [2, 7]: <8.75 g ae/ha
GR90 SCPJU [2, 8]: 21.1 g ae/ha
Mean Visual Injury (%)-21 Days After Application ORYSA ‘M202’ ([3]; Table 7, 8.75 g ae/ha): 0%
Mean Visual Injury (%)-21 Days After Application ORYSA ‘M202’ ([3]; Table 7, 17.5 g ae/ha): 0%
Mean Visual Injury (%)-21 Days After Application ORYSA ‘M202’ ([3]; Table 7, 35 g ae/ha): 0%
Mean Visual Injury (%)-21 Days After Application ORYSA ‘M202’ ([3]; Table 7, 70 g ae/ha): 7%
Mean Visual Injury (%)-21 Days After Application ORYSA ‘M202’ ([3]; Table 7, 140 g ae/ha): 8%
GR50 ORYSA ‘M202’ [3, 7]: >140 g ae/ha
GR90 ORYSA ‘M202’ [3, 8]: >140 g ae/ha
Mean Visual Injury (%)-21 Days After Application MOOVA ([4]; Table 7, 8.75 g ae/ha): 100%
Mean Visual Injury (%)-21 Days After Application MOOVA ([4]; Table 7, 17.5 g ae/ha): 100%
Mean Visual Injury (%)-21 Days After Application MOOVA ([4]; Table 7, 35 g ae/ha): 100%
Mean Visual Injury (%)-21 Days After Application MOOVA ([4]; Table 7, 70 g ae/ha): 100%
Mean Visual Injury (%)-21 Days After Application MOOVA ([4]; Table 7, 140 g ae/ha): 100%
GR50 MOOVA [4, 7]: <8.75 g ae/ha
GR90 MOOVA [4, 8]: <8.75 g ae/ha
Mean Visual Injury (%)-21 Days After Application ECHCG ([5]; Table 7, 8.75 g ae/ha): 0%
Mean Visual Injury (%)-21 Days After Application ECHCG ([5]; Table 7, 17.5 g ae/ha): 7%
Mean Visual Injury (%)-21 Days After Application ECHCG ([5]; Table 7, 35 g ae/ha): 90%
Mean Visual Injury (%)-21 Days After Application ECHCG ([5]; Table 7, 70 g ae/ha): 98%
Mean Visual Injury (%)-21 Days After Application ECHCG ([5]; Table 7, 140 g ae/ha): 100%
GR50 ECHCG [5, 7]: 25.4 g ae/ha
GR90 ECHCG [5, 8]: 52.9 g ae/ha
Mean Visual Injury (%)-21 Days After Application ORYSA ‘Wells’ ([6]; Table 7, 8.75 g ae/ha): 0%
Mean Visual Injury (%)-21 Days After Application ORYSA ‘Wells’ ([6]; Table 7, 17.5 g ae/ha): 0%
Mean Visual Injury (%)-21 Days After Application ORYSA ‘Wells’ ([6]; Table 7, 35 g ae/ha): 0%
Mean Visual Injury (%)-21 Days After Application ORYSA ‘Wells’ ([6]; Table 7, 70 g ae/ha): 0%
Mean Visual Injury (%)-21 Days After Application ORYSA ‘Wells’ ([6]; Table 7, 140 g ae/ha): 5%
GR50 ORYSA ‘Wells’ [6, 7]: >140 g ae/ha
GR90 ORYSA ‘Wells’ [6, 8]: >140 g ae/ha
